Assay results published in patent publication US4335244A, “Monolactate salts of 4'-(9-acridinylamino)methanesulfon-m-anisidide” (Bristol-Myers Company, priority 1980, dated 1982).
Values after ≈ are worked out from the molar mass of the structure shown. Values joined by “and” are separate entries in the source; they are usually repeats but may differ in a detail not shown here. Identical values can stand only once. Like-named read-outs stand apart in the source and are kept apart here.

Legend:
[1] = Reconstitution with (sterile) water; type: physicochemical
Description: The crystalline m-AMSA monolactate hemiacetonate (10 mg) prepared according to Example 1 was dissolved in 0.5 ml sterile water in an 8.2 ml flint vial. The vial was lyophilized on a laboratory lyophilizer for 16 hours. Sterile water (0.5 ml) was added to the vial. A solution was obtained after two minutes of shaking.
2. For reconstitution, add a sufficient amount of sterile water for
injection to give a 5 mg/ml mAMSA activity solution. The reconstituted

[2] = for Time for which dilute solution remains clear (in words): dilute solutions (e.g. 3-5 mg/ml) of m-AMSA, no precipitation of salt; for Stability (in words): solid form and/or upon reconstitution with water; for Time for which reconstituted solution remained clear: room temperature
Description: (§1) (f) Stability: 15 mg salt was reconstituted with 10 ml sterile water.

[3] = cited from earlier work
[4] = system: animal tumor systems; conditions: Cain, et al., Europ. J. Cancer 10:539-549 (1974); cited from earlier work
[5] = pH of aqueous solution before lyophilization; type: physicochemical; conditions: 180 mg in 24 ml sterile water
Description: m-AMSA DL-lactate acetone solvate (180 mg; prepared in Example 6) was dissolved in 24 ml sterile water with stirring. The resulting clear (pH 4.2) solution was passed through a 1 inch 0.45 micron Millipore filter. Two ml of the filtrate was placed in an 8.2 cc flint vial and the solution was lyophilized for 24 hours.

[6] = physchem; conditions: water
[7] = physchem; conditions: sterile water
Description: as §1

COc1cc(NS(C)(=O)=O)ccc1Nc1c2ccccc2nc2ccccc12 [Example 2, Lyophilized L(+)-Monolactate Hemiacetonate of m-AMSA]
Shaking time to obtain a solution on reconstitution of lyophilized product ([1]; 10 mg salt lyophilized, 0.5 ml sterile water): two

COc1cc(NS(C)(=O)=O)ccc1Nc1c2ccccc2nc2ccccc12 [m-AMSA, 4'-(9-acridinylamino)methanesulfon-m-anisidide]
Incompatibility of solutions with ions ([2]; chloride, sulfate and phosphate ions, insoluble salts form): incompatible with chloride, sulfate and phosphate
Clinical evaluation result [3]: very promising initial results
Antitumor activity in animal tumor systems [4]: significant antitumor activity in animal tumor systems

COc1cc(NS(C)(=O)=O)ccc1Nc1c2ccccc2nc2ccccc12 [Example 10, m-AMSA D(-)-Monolactate Hemiacetonate]
Time for which dilute solution remains clear (in words) [2]: at least several hours
Stability (in words) [2]: excellent stability both in solid form and upon reconstitution with water

COc1cc(NS(C)(=O)=O)ccc1Nc1c2ccccc2nc2ccccc12 [Example 4, m-AMSA Mono DL-Lactate Acetone Solvate]
Time for which aqueous solution remained clear ([2]; 5 mg/ml, room temperature (17° C.)): at least 16 hours
Time for which aqueous solution remained clear ([2]; 7.5 mg/ml, 17° C., listed as Example 5): at least 16 hours
Time for which reconstituted solution remained clear ([2]; 7.5 mg/ml): 24 h
Time for which reconstituted solution remained clear ([2]; 10 mg/ml): 24 h
Time for which reconstituted solution remained clear ([2]; 15 mg/ml): 6 h
Time for which reconstituted solution remains clear ([2]; 5-7.5 mg/ml, 17° C.): at least 6 hours
Time for which dilute solution remains clear (in words) [2]: at least several hours
Stability (in words) [2]: excellent stability both in solid form and upon reconstitution with water
Concentration of solution obtained on reconstitution with water [1]: 5000 to 7500 µg/mL
Concentration of reconstituted aqueous solution readily obtained ([1]; 3 minutes shaking at 75° F.): 5000 µg/mL and 7500 µg/mL and 10000 µg/mL
Concentration of solution obtained on reconstitution with water ([1]; listed as Example 5): 7500 µg/mL
pH of solution [5]: 4.2
solubility ([6]; room temperature): 25 mg/mL

COc1cc(NS(C)(=O)=O)ccc1Nc1c2ccccc2nc2ccccc12 [Example 11]
Concentration of solution obtainable on reconstitution with water (m-AMSA activity) ([1]; lyophilized solid, at least 3-5 mg/ml m-AMSA activity, procedure of Example 7 'if repeated'): 3000 to 5000 µg/mL

COc1cc(NS(C)(=O)=O)ccc1Nc1c2ccccc2nc2ccccc12 [Example 1, L(+)-Monolactate Hemiacetonate of m-AMSA]
Time for which reconstituted solution was stable ([2]; 15 mg salt reconstituted with 10 ml sterile water): at least 24 hours
Time for which dilute solution remains clear (in words) [2]: at least several hours
Stability (in words) [2]: excellent stability both in solid form and upon reconstitution with water
solubility [6]: 5 mg/mL (≈ 12.7 mM)
degraded at 336 h [7]: < 6%

COc1cc(NS(C)(=O)=O)ccc1Nc1c2ccccc2nc2ccccc12 [Example 7]
Time for which aqueous solution remained clear ([2]; 7.5 mg/ml, 17° C.): at least 6 hours
Time for which shaken solution was clear ([2]; 7.5 mg/ml, low speed horizontal shaker): up to 5 hours
Concentration of solution obtained on reconstitution with water [1]: 7500 µg/mL
